We go through eight cell lines from the supplement of paper PMC10307832.

Holding throughout (experiment): relative viability (nuclei count vs DMSO), 5 days (fraction); higher = more cells survive
Compound in assay [1]: C1CNCCC1C2=CC(=NN2)C3=CC=NC=C3 + CCNC(=O)c1noc(-c2cc(C(C)C)c(O)cc2O)c1-c1ccc(CN2CCOCC2)cc1 [Luminespib] (partner 0.01 µM)
The method in brief: (§1)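 For relative viability, nuclei counts in treated wells were divided by those in vehicle wells. Lung cancer cell lines had been pin-tool dosed in 1536-well plates the day after seeding and cultured for 5 days, then fixed and stained in one step (final 0.05% Triton X-100, 1% formaldehyde, 1 ug/ml Hoechst) and imaged at 4×. Doses were one drug alone or a fixed anchor-drug dose plus five library-drug doses (not always all listed) in √10 steps, and values are duplicate-plate medians.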

Compound in assay [2]: C[C@@H](N)c1ccc(C(=O)Nc2ccnc3[nH]ccc23)cc1 + O=C(CCCCCCC(=O)Nc1ccccc1)NO [Vorinostat] (partner 1 µM)
The method in brief:
as §1

Compound in the assay “Tanzisertib + Pictilisib”: O[C@H]1CC[C@H](Nc2ncc3nc(Nc4c(F)cc(F)cc4F)n([C@H]4CCOC4)c3n2)CC1 [Tanzisertib] + CS(=O)(=O)N1CCN(Cc2cc3nc(-c4cccc5[nH]ncc45)nc(N4CCOCC4)c3s2)CC1 [Pictilisib] (partner 1 µM)
The method in brief:
as §1

Compound in the assay “Tanzisertib + Vorinostat”: O[C@H]1CC[C@H](Nc2ncc3nc(Nc4c(F)cc(F)cc4F)n([C@H]4CCOC4)c3n2)CC1 [Tanzisertib] + O=C(CCCCCCC(=O)Nc1ccccc1)NO [Vorinostat] (partner 1 µM)
The method in brief:
as §1

As for NCI-H441, the relative viability came out at 0.332 in assay [1] (first compound 0.08 µM); 0.312 in assay [1] (first compound 0.8 µM); 0.309 in assay [1] (first compound 2.53 µM); 0.444 in assay [1] (first compound 8 µM); 0.946 in assay [2] (first compound 0.04 µM); 0.827 in assay [2] (first compound 0.1265 µM). The relative viability worked out at 1.03 in assay [2] (first compound 0.4 µM); 0.739 in assay [2] (first compound 1.265 µM); 0.835 in assay [2] (first compound 4 µM); 0.494 with Tanzisertib + Pictilisib (first compound 0.08 µM); 0.529 with Tanzisertib + Pictilisib (first compound 0.253 µM); 0.525 with Tanzisertib + Pictilisib (first compound 0.8 µM). Also, the relative viability was 0.476 in the assay with Tanzisertib + Pictilisib (first compound 2.53 µM); 0.463 with Tanzisertib + Pictilisib (first compound 8 µM); 0.895 in the assay with Tanzisertib + Vorinostat (first compound 0.08 µM); 0.854 in the assay with Tanzisertib + Vorinostat (first compound 0.253 µM); 0.731 with Tanzisertib + Vorinostat (first compound 0.8 µM); 0.72 with Tanzisertib + Vorinostat (first compound 2.53 µM). In the assay with Tanzisertib + Vorinostat (first compound 8 µM), the relative viability was determined as 0.804.
As for NCI-H460, the relative viability in assay [1] (first compound 0.08 µM) was 0.0398; in assay [1] (first compound 0.8 µM), 0.0336; in assay [1] (first compound 2.53 µM) it was 0.0427; in assay [1] (first compound 8 µM), 0.0305; in assay [2] (first compound 0.04 µM), 0.86; in assay [2] (first compound 0.1265 µM) it was 0.73. Also, the relative viability in assay [2] (first compound 0.4 µM) was 0.771; in assay [2] (first compound 1.265 µM), 0.949; in assay [2] (first compound 4 µM) it was 0.702; with Tanzisertib + Pictilisib (first compound 0.08 µM), 0.495; with Tanzisertib + Pictilisib (first compound 0.253 µM), 0.368; with Tanzisertib + Pictilisib (first compound 0.8 µM), 0.362. Besides, the relative viability in the assay with Tanzisertib + Pictilisib (first compound 2.53 µM) came out at 0.317; in the assay with Tanzisertib + Pictilisib (first compound 8 µM) it was 0.0876; with Tanzisertib + Vorinostat (first compound 0.08 µM), 0.864; with Tanzisertib + Vorinostat (first compound 0.253 µM) it was 0.89; in the assay with Tanzisertib + Vorinostat (first compound 0.8 µM), 0.744; with Tanzisertib + Vorinostat (first compound 2.53 µM) it was 0.729. In addition, in the assay with Tanzisertib + Vorinostat (first compound 8 µM), the relative viability amounted to 0.699.
For the cell line NCI-H520, the relative viability in assay [1] (first compound 0.08 µM) was 0.213; in assay [1] (first compound 0.8 µM) it was 0.196; in assay [1] (first compound 2.53 µM), 0.214; in assay [1] (first compound 8 µM), 0.177; in assay [2] (first compound 0.04 µM), 0.862; in assay [2] (first compound 0.1265 µM), 0.757. Also, the relative viability in assay [2] (first compound 0.4 µM) amounted to 0.813; in assay [2] (first compound 1.265 µM), 0.714; in assay [2] (first compound 4 µM), 0.693; with Tanzisertib + Pictilisib (first compound 0.08 µM), 0.372; with Tanzisertib + Pictilisib (first compound 0.253 µM), 0.322; with Tanzisertib + Pictilisib (first compound 0.8 µM), 0.29. In addition, the relative viability turned out to be 0.287 with Tanzisertib + Pictilisib (first compound 2.53 µM); 0.297 in the assay with Tanzisertib + Pictilisib (first compound 8 µM); 0.866 with Tanzisertib + Vorinostat (first compound 0.08 µM); 0.749 with Tanzisertib + Vorinostat (first compound 0.253 µM); 0.789 with Tanzisertib + Vorinostat (first compound 0.8 µM); 0.724 with Tanzisertib + Vorinostat (first compound 2.53 µM). In addition, the relative viability with Tanzisertib + Vorinostat (first compound 8 µM) came out at 0.73.
For NCI-H596, the relative viability in assay [1] (first compound 0.08 µM) came to 0.967; in assay [1] (first compound 0.8 µM), 1.07; in assay [1] (first compound 2.53 µM) it was 1.11; in assay [1] (first compound 8 µM), 1.16; in assay [2] (first compound 0.04 µM) it was 0.596; in assay [2] (first compound 0.1265 µM) it was 0.517. Moreover, the relative viability in assay [2] (first compound 0.4 µM) came out at 0.583; in assay [2] (first compound 1.265 µM) it was 0.654; in assay [2] (first compound 4 µM) it was 0.582; in the assay with Tanzisertib + Pictilisib (first compound 0.08 µM) it was 0.408; in the assay with Tanzisertib + Pictilisib (first compound 0.253 µM) it was 0.407; in the assay with Tanzisertib + Pictilisib (first compound 0.8 µM), 0.42. In addition, the relative viability with Tanzisertib + Pictilisib (first compound 2.53 µM) was determined as 0.394; with Tanzisertib + Pictilisib (first compound 8 µM), 0.451; with Tanzisertib + Vorinostat (first compound 0.08 µM), 0.533; with Tanzisertib + Vorinostat (first compound 0.253 µM), 0.655; with Tanzisertib + Vorinostat (first compound 0.8 µM) it was 0.619; with Tanzisertib + Vorinostat (first compound 2.53 µM), 0.711. Moreover, in the assay with Tanzisertib + Vorinostat (first compound 8 µM), the relative viability turned out to be 0.589.
As to NCI-H647, the relative viability is 0.151 in assay [1] (first compound 0.08 µM); 0.21 in assay [1] (first compound 0.8 µM); 0.157 in assay [1] (first compound 2.53 µM); 0.101 in assay [1] (first compound 8 µM); 0.472 in assay [2] (first compound 0.04 µM); 0.623 in assay [2] (first compound 0.1265 µM). The relative viability in assay [2] (first compound 0.4 µM) amounted to 0.551; in assay [2] (first compound 1.265 µM) it was 0.613; in assay [2] (first compound 4 µM) it was 0.463; in the assay with Tanzisertib + Pictilisib (first compound 0.08 µM) it was 0.456; with Tanzisertib + Pictilisib (first compound 0.253 µM) it was 0.537; with Tanzisertib + Pictilisib (first compound 0.8 µM), 0.474. Besides, the relative viability with Tanzisertib + Pictilisib (first compound 2.53 µM) amounted to 0.436; in the assay with Tanzisertib + Pictilisib (first compound 8 µM) it was 0.141; with Tanzisertib + Vorinostat (first compound 0.08 µM) it was 0.486; with Tanzisertib + Vorinostat (first compound 0.253 µM), 0.569; with Tanzisertib + Vorinostat (first compound 0.8 µM) it was 0.549; in the assay with Tanzisertib + Vorinostat (first compound 2.53 µM), 0.661. Also, the relative viability in the assay with Tanzisertib + Vorinostat (first compound 8 µM) is 1.1.
For NCI-H650, the relative viability in assay [1] (first compound 0.08 µM) is 0.65; in assay [1] (first compound 0.8 µM), 0.705; in assay [1] (first compound 2.53 µM) it was 0.958; in assay [1] (first compound 8 µM), 0.744; in assay [2] (first compound 0.1265 µM), 0.507; in assay [2] (first compound 0.4 µM) it was 0.325. The relative viability in assay [2] (first compound 4 µM) amounted to 0.381; with Tanzisertib + Pictilisib (first compound 0.08 µM), 0.843; with Tanzisertib + Pictilisib (first compound 0.253 µM) it was 0.825; with Tanzisertib + Pictilisib (first compound 0.8 µM) it was 0.858; in the assay with Tanzisertib + Pictilisib (first compound 2.53 µM) it was 0.957; in the assay with Tanzisertib + Pictilisib (first compound 8 µM), 0.963. The relative viability was found to be 0.404 with Tanzisertib + Vorinostat (first compound 0.08 µM); 0.421 with Tanzisertib + Vorinostat (first compound 0.253 µM); 0.432 in the assay with Tanzisertib + Vorinostat (first compound 0.8 µM); 0.45 in the assay with Tanzisertib + Vorinostat (first compound 2.53 µM); 0.282 with Tanzisertib + Vorinostat (first compound 8 µM).
Take NCI-H661: the relative viability is 0.93 in assay [1] (first compound 0.08 µM); 0.915 in assay [1] (first compound 0.8 µM); 0.934 in assay [1] (first compound 2.53 µM); 0.848 in assay [1] (first compound 8 µM); 0.859 in assay [2] (first compound 0.04 µM); 0.802 in assay [2] (first compound 0.1265 µM). The relative viability in assay [2] (first compound 0.4 µM) came to 0.845; in assay [2] (first compound 1.265 µM), 0.826; in assay [2] (first compound 4 µM), 0.886; in the assay with Tanzisertib + Pictilisib (first compound 0.08 µM) it was 0.464; with Tanzisertib + Pictilisib (first compound 0.253 µM), 0.389; with Tanzisertib + Pictilisib (first compound 0.8 µM), 0.365. The relative viability with Tanzisertib + Pictilisib (first compound 2.53 µM) worked out at 0.447; with Tanzisertib + Pictilisib (first compound 8 µM), 0.35; with Tanzisertib + Vorinostat (first compound 0.08 µM), 0.799; with Tanzisertib + Vorinostat (first compound 0.253 µM), 0.724; in the assay with Tanzisertib + Vorinostat (first compound 0.8 µM), 0.798; with Tanzisertib + Vorinostat (first compound 2.53 µM) it was 0.859. For the same cell line, in the assay with Tanzisertib + Vorinostat (first compound 8 µM), the relative viability came to 0.797.
As to NCI-H727, the relative viability in assay [1] (first compound 0.08 µM) stood at 0.27; in assay [1] (first compound 0.8 µM), 0.693; in assay [1] (first compound 2.53 µM) it was 0.453; in assay [1] (first compound 8 µM) it was 0.36; in assay [2] (first compound 0.04 µM), 1.6; in assay [2] (first compound 0.1265 µM), 1.22. Further, the relative viability in assay [2] (first compound 0.4 µM) stood at 1.52; in assay [2] (first compound 1.265 µM), 1.57; in assay [2] (first compound 4 µM), 1.49; with Tanzisertib + Pictilisib (first compound 0.08 µM), 0.356; with Tanzisertib + Pictilisib (first compound 0.253 µM), 0.463; with Tanzisertib + Pictilisib (first compound 0.8 µM), 0.363. The relative viability stood at 0.333 with Tanzisertib + Pictilisib (first compound 2.53 µM); 0.307 with Tanzisertib + Pictilisib (first compound 8 µM); 1.18 with Tanzisertib + Vorinostat (first compound 0.08 µM); 1.26 with Tanzisertib + Vorinostat (first compound 0.253 µM); 1.25 in the assay with Tanzisertib + Vorinostat (first compound 0.8 µM); 1.04 with Tanzisertib + Vorinostat (first compound 2.53 µM). Also, in the assay with Tanzisertib + Vorinostat (first compound 8 µM), the relative viability was 1.12.
